Experiments:
PDE4B1 = target: T1, PDE4B1 (Homo sapiens, UniProt Q07343); assay: Inhibition of PDE4B1 activity (SPA, [3H]cAMP); type: biochemical; conditions: recombinant PDE4B1, 0.5 μM cAMP; binned: below 8 / between 8 and 9; read-out: PDE4B1 inhibitory values measured as −logIC50 (converted)
T1 construct: made in house; host or cells: SF21 insect cells (baculovirus; virus prepared in SF9 cells)
Description: The PDE4B1 (GB no. L20966) was a gift of Prof. M. Conti (Stanford University, USA). It was amplified from the original plasmid (pCMV5) via PCR with primers Rb18 (5′-[…]-3′) and Rb10 (5′-[…]-3′) and cloned into the pCR-Bac vector (Invitrogen, Groningen, NL).
The recombinant baculovirus was prepared by means of homologous recombination in SF9 insect cells. The expression plasmids were cotransfected with Baculo-Gold DNA (Pharmingen, Hamburg) using a standard protocol (Pharmingen, Hamburg). Wt virus-free recombinant virus supernatants were selected using plaque assay methods. After that, high-titre virus supernatants were prepared by amplifying 3 times. PDE4B1 was expressed in SF21 cells by infecting 2×10^6 cells/ml with an MOI (multiplicity of infection) between 1 and 10 in the serum-free SF900 medium (GIBCO Life Technologies, Karlsruhe, Germany). The cells were cultured at 28° C. for 48-72 hours, after which they were pelleted for 5-10 min at 1000×g and 4° C.
The SF21 insect cells were resuspended, at a concentration of approx. 10^7 cells/ml, in ice-cold (4° C.) homogenization buffer (20 mM Tris, pH 8.2, containing the following additions: 140 mM NaCl, 3.8 mM KCl, 1 mM EGTA, 1 mM MgCl2, 10 mM β-mercaptoethanol, 2 mM benzamidine, 0.4 mM Pefablock, 10 μM leupeptin, 10 μM pepstatin A, 5 μM trypsin inhibitor) and disrupted by ultrasonication. The homogenate was then centrifuged for 10 min at 1000×g and the supernatant was stored at −80° C. until subsequent use (see below). The protein content was determined by the Bradford method (BioRad, Munich) using BSA (Bovine serum albumin) as the standard.
PDE4B1 activities were measured in a 96-well platform using SPA (scintillation proximity assay) yttrium silicate beads (RPNQ1050 from GE Healthcare). In a first step the PDE activity operated hydrolysis of either [^3H] cAMP (substrate) into [^3H] 5′AMP. In a second step substrate and product were distinguished following addition of SPA yttrium silicate beads. Indeed, in the presence of zinc sulphate the linear [^3H] […] Close proximity of bound [^3H] […] The test volume was 100 μl and finally contained 20 mM Tris buffer (pH 7.4), 0.1 mg/ml of BSA, 5 mM Mg^2+, 0.5 μM cAMP (including about 50,000 cpm of [3H]cAMP) as substrate, 1 μl of the respective substance dilution in DMSO and sufficient recombinant PDE (1000×g supernatant, see above) to ensure that 10-20% of the cAMP was converted under the said experimental conditions. […] After a preincubation of 5 min at 37° C., the reaction was commenced by adding the substrate (cAMP) and the assays were incubated for a further 15 min. Reactions were terminated by adding SPA beads (50 μl). In agreement with the manufacturer's instructions, the SPA beads had previously been resuspended in water, but were then diluted 1:3 (v/v) in water. This diluted solution further contained 3 mM IBMX (isobutylmethylxanthine) to ensure a complete block of PDE activity. Once the beads were sedimented (>30 min), the MTP's (microtiter plate) were analyzed in commercially available luminescence detection devices. The corresponding IC50 values of the compounds for inhibition of PDE4B1 activity were determined from the concentration-effect curves by means of non-linear regression.
For the following compounds PDE4B1 inhibitory values [measured as −logIC50 (mol/l)] below 8 and between 8 and 9 have been determined. The numbers of the compounds correspond to the numbers of the examples.

human PDE5 = target: T2, human PDE5 (Homo sapiens, UniProt O76074); assay: Inhibition of PDE5 activity (SPA, [3H]cGMP, platelet lysate); type: biochemical; conditions: 0.5 μM cGMP, binned: below 8 / between 8 and 9, read-out: PDE5 inhibitory values measured as −logIC50 (converted)
T2 construct: from tissue; host or cells: human platelets from fresh donor blood (platelet lysate)
Description: As a source for human PDE5, platelets were used. For that purpose, 150 ml fresh blood from human donors anticoagulated with citrate [final concentration 0.3% (w/v)] was centrifuged at 200 g for 10 min to obtain the so-called platelet-rich-plasma (PRP) as a supernatant. 1/10 volume of ACD solution (85 mM Na3-citrate, 111 mM D-glucose, 71 mM citric acid, pH 4.4) was added to 9/10 volume of PRP. After centrifugation (1,400 g, 10 min) the cell pellet was resuspended in 3 ml homogenization buffer (NaCl 140 mM, KCl 3.8 mM, EGTA (ethylene glycol tetraacetic acid) 1 mM, MgCl2 1 mM, Tris-HCl 20 mM, beta-mercaptoethanol 1 mM, pH 8.2) plus protease-inhibitor mix resulting in final concentrations of 0.5 mM Pefablock (Roche), 10 μM Leupeptin, 5 μM Trypsine inhibitor, 2 mM Benzamidin and 10 μM Pepstatin A. The suspension was sonicated and thereafter centrifuged for 15 min at 10,000 g. The resulting supernatant (platelet lysate) was used for enzymatic assays.
PDE5 activities were measured in a 96-well platform using SPA (scintillation proximity assay) yttrium silicate beads (RPNQ1050 from GE Healthcare). In a first step the PDE activity operated hydrolysis of either [^3H] cGMP (substrate) into [^3H] 5′GMP. In a second step substrate and product were distinguished following addition of SPA yttrium silicate beads. Indeed, in the presence of zinc sulphate the linear [^3H] […] Close proximity of bound [^3H] […] The test volume was 100 μl and contained 20 mM Tris buffer (pH 7.4), 0.1 mg of BSA (bovine serum albumin)/ml, 5 mM Mg^2+, 1 μM motapizone (PDE3 Inhibitor), 10 nM PDE2 inhibitor 2-(3,4-dimethoxybenzyl)-7-[(1R,2R)-2-hydroxy-1-(2-phenylethyl)propyl]-5-methylimidazo[5,1-f][1,2,4]triazin-4(3H)-one, 0.5 μM cGMP (cyclic guanosine monophosphate) (including about 50,000 cpm of [3H]cGMP as a tracer) (substrate), 1 μl of the respective compound dilution in dimethylsulfoxide (DMSO) and sufficient PDE5-containing platelet lysat (10,000×g supernatant, see above) to ensure that 10-20% of the cGMP was converted under the said experimental conditions. […] After a preincubation of 5 min at 37° C., the reaction was commenced by adding the substrate (cGMP) and the assay was incubated for a further 15 min. The reaction was terminated by adding SPA beads (50 μl). In agreement with the manufacturer's instructions, the SPA beads had previously been resuspended in water, but were then diluted 1:3 (v/v) in water. This diluted solution also contained 3 mM 8-methoxymethyl-3-isobutyl-1-methylxanthine (IBMX) to ensure a complete block of PDE activity. Once the beads were sedimented (>30 min), the MTP's were analyzed in commercially available luminescence detection devices. The corresponding IC50 values of the compounds for inhibition of PDE activity were determined from the concentration-effect curves by means of non-linear regression.
For the following compounds PDE5 inhibitory values [measured as −logIC50 (mol/l)] below 8 and between 8 and 9 have been determined. The numbers of the compounds correspond to the numbers of the examples.

T1 sequence (Q07343 whole entry): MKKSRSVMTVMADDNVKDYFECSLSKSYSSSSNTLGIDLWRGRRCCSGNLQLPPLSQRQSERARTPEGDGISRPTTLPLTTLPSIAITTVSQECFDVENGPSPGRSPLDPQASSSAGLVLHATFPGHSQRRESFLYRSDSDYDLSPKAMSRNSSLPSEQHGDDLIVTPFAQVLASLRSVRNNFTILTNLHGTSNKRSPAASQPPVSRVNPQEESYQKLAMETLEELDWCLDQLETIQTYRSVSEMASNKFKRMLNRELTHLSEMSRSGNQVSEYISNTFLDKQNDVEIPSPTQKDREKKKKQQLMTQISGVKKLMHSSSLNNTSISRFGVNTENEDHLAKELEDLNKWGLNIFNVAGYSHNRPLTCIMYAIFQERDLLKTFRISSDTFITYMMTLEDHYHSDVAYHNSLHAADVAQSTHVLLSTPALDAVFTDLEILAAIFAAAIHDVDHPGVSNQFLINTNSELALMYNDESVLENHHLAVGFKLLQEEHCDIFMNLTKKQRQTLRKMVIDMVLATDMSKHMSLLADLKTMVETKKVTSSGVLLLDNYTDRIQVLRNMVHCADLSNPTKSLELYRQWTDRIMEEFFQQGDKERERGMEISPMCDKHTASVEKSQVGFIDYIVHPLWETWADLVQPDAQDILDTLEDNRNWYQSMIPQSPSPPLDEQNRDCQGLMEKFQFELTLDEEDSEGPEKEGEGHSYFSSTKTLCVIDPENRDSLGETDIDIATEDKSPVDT

Row | Compound | IC50 (PDE4B1) [nM] | IC50 (human PDE5) [nM]
1 | CCOc1cc2c(cc1OC)C(c1cccc(C(=O)N3CCC(n4c(=O)c5sc(-c6ccccc6)cc5n(Cc5ccc(OC)c(F)c5)c4=O)CC3)c1)=N[C@@H]1CCSC[C@H]21 [Example 2, 3-[1-({3-[(4aR,10bR)-9-ethoxy-8-methoxy-3,4,4a,10b-tetrahydro-1H-thiopyrano[4,3-c]isoquinolin-6-yl]phenyl}carbonyl)piperidin-4-yl]-1-(3-fluoro-4-methoxybenzyl)-6-phenylthieno[3,2-d]pyrimidine-2,4(1H,3H)-dione] | 1 to 10 | 1 to 10
2 | CCOc1cc2c(cc1OC)C(c1ccc(C(=O)N3CCC(n4c(=O)c5sc(-c6ccccc6)cc5n(Cc5ccc(C)c(F)c5)c4=O)CC3)cc1)=N[C@@H]1CCSC[C@H]21 [Example 6, 3-[1-({4-[(4aR,10bR)-9-ethoxy-8-methoxy-3,4,4a,10b-tetrahydro-1H-thiopyrano[4,3-c]isoquinolin-6-yl]phenyl}carbonyl)piperidin-4-yl]-1-(3-fluoro-4-methylbenzyl)-6-phenylthieno[3,2-d]pyrimidine-2,4(1H,3H)-dione] | > 10 | 1 to 10
3 | CCOc1cc2c(cc1OC)C(c1ccc(C(=O)N3CCC(n4c(=O)c5sc(-c6ccccc6)cc5n(Cc5ccccc5)c4=O)CC3)cc1)=N[C@@H]1CCSC[C@H]21 [Example 7, 1-benzyl-3-[1-({4-[(4aR,10bR)-9-ethoxy-8-methoxy-3,4,4a,10b-tetrahydro-1H-thiopyrano[4,3-c]isoquinolin-6-yl]phenyl}carbonyl)piperidin-4-yl]-6-phenylthieno[3,2-d]pyrimidine-2,4(1H,3H)-dione] | 1 to 10 | 1 to 10

The remaining lines, values ahead:

Row | IC50 (PDE4B1) [nM] | IC50 (human PDE5) [nM] | Compound
4 | 1 to 10 | 1 to 10 | CCOc1cc2c(cc1OC)C(c1ccc(C(=O)N3CCC(n4c(=O)c5sc(-c6ccccc6)cc5n(Cc5ccc(OC)c(F)c5)c4=O)CC3)cc1)=N[C@@H]1CCSC[C@H]21 [Example 1, 3-(1-{4-[(4aR,10bR)-9-ethoxy-8-methoxy-3,4,4a,10b-tetrahydro-1H-thiopyrano[4,3-c]isoquinolin-6-yl]benzoyl}piperidin-4-yl)-1-(3-fluoro-4-methoxybenzyl)-6-phenylthieno[3,2-d]pyrimidine-2,4(1H,3H)-dione]
5 | 1 to 10 | 1 to 10 | CCOc1cc2c(cc1OC)C(c1ccc(C(=O)N3CCC(n4c(=O)c5sc(-c6ccccc6)cc5n(Cc5cc(F)c(OC)c(F)c5)c4=O)CC3)cc1)=N[C@@H]1CCSC[C@H]21 [Example 3, 1-(3,5-difluoro-4-methoxybenzyl)-3-[1-({4-[(4aR,10bR)-9-ethoxy-8-methoxy-3,4,4a,10b-tetrahydro-1H-thiopyrano[4,3-c]isoquinolin-6-yl]phenyl}carbonyl)piperidin-4-yl]-6-phenylthieno[3,2-d]pyrimidine-2,4(1H,3H)-dione]
6 | 1 to 10 | 1 to 10 | CCOc1cc2c(cc1OC)C(c1ccc(C(=O)N3CCC(n4c(=O)c5sc(-c6ccccc6)cc5n(Cc5ccc(OC)c(F)c5F)c4=O)CC3)cc1)=N[C@@H]1CCSC[C@H]21 [Example 4, 1-(2,3-difluoro-4-methoxybenzyl)-3-[1-({4-[(4aR,10bR)-9-ethoxy-8-methoxy-3,4,4a,10b-tetrahydro-1H-thiopyrano[4,3-c]isoquinolin-6-yl]phenyl}carbonyl)piperidin-4-yl]-6-phenylthieno[3,2-d]pyrimidine-2,4(1H,3H)-dione]
7 | 1 to 10 | 1 to 10 | CCOc1cc2c(cc1OC)C(c1ccc(C(=O)N3CCC(n4c(=O)c5sc(-c6ccccc6)cc5n(Cc5cc(OC)c(OC)cc5F)c4=O)CC3)cc1)=N[C@@H]1CCSC[C@H]21 [Example 5, 3-[1-({4-[(4aR,10bR)-9-ethoxy-8-methoxy-3,4,4a,10b-tetrahydro-1H-thiopyrano[4,3-c]isoquinolin-6-yl]phenyl}carbonyl)piperidin-4-yl]-1-(2-fluoro-4,5-dimethoxybenzyl)-6-phenylthieno[3,2-d]pyrimidine-2,4(1H,3H)-dione]

Reference: US20140113877A1, “NOVEL 3,4,4A,10B-TETRAHYDRO-1H-THIOPYRANO[4,3-C] ISOQUINOLINE COMPOUNDS” (Takeda GmbH, priority 2011, published 2014)
